One assay concerns E. faecalis ATCC 29212. The assay is described as follows: MIC and MBC on ATCC control strains (Example 10). It counts as cell-based. An excerpt:
(§1) The Gram-positive organisms tested were S. epidermidis ATCC 12228, S. aureus ATCC 25923, and E. faecalis ATCC 29212. The Gram-negative strains tested were P. aeruginosa ATCC 27853, K. pneumonia ATCC 700603 and E. coli ATCC 25922.

A further assay deals with P. aeruginosa ATCC 27853. As to the kind of experiment: MIC and MBC on ATCC control strains (Example 10). Format: cell-based.
Excerpt: as §1

In a further assay the test system is S. aureus ATCC 25923. As to the kind of experiment: MIC and MBC on ATCC control strains (Example 10). It counts as cell-based.
Excerpt: as §1

Assay [1] relates to S. epidermidis ATCC 12228. As to the kind of experiment: MIC and MBC on ATCC control strains (Example 10). It counts as cell-based.
Excerpt: as §1

A further assay concerns K. pneumonia ATCC 700603. As to the kind of experiment: MIC and MBC on ATCC control strains (Example 10). It counts as cell-based, K. pneumoniae.
Excerpt: as §1

In the next assay the test system is S. aureus. As to the kind of experiment: Multi-organism zone-of-inhibition screening (Example 15). The conditions noted are these: 24 hr, one sample per plate, antibiotic disks 6 mm (Gentamicin 10 μg, penicillin 10 units). It counts as cell-based. On the procedure: (§2) The 5-FU CVC was compared with the commercially available Arrow CVC. Gentamicin (10 μg) or penicillin (10 units) disks were used as positive controls and CVC was used as the negative control. The samples were challenged with 3 species of Gram-positive bacteria, 4 species of Gram-negative bacteria and 1 type of yeast. The organisms used to challenge the samples were the following ATCC strains: S. aureus, Methicillin Resistant Staphylococcus aureus (MRSA), S. epidermidis, K. pneumoniae, and Vancomycin Resistant Pediococcus (VRP), E. coli, P. aeruginosa and C. albicans.
(§3) Organisms were inoculated into 2 mL of liquid agar, which was poured on top of solidified agar. One plate was made per organism. Test articles were inserted into the agar when the plates were solidified and dry. ZOI results were recorded at 24 hr. […] Each plate also contained one negative and one positive control sample and 1 Arrow CVC sample.

For another assay, the system named is S. epidermidis. The description is as above. Format: cell-based. The conditions noted are these: 24 hr, one sample per plate, antibiotic disks 6 mm (Gentamicin 10 μg, penicillin 10 units). On the procedure:
as §2, §3

The test system of assay [2] is Vancomycin Resistant Pediococcus (VRP). The description is as above. It counts as cell-based. The conditions noted are these: 24 hr, one sample per plate, antibiotic disks 6 mm (Gentamicin 10 μg, penicillin 10 units). On the procedure:
as §2, §3

Another assay concerns C. albicans. Described as above. Format: cell-based. To be noted: 24 hr, one sample per plate, antibiotic disks 6 mm (Gentamicin 10 μg, penicillin 10 units). On the procedure: as §2
Organisms were inoculated into 2 mL of liquid agar, which was poured on top of solidified agar. One plate was made per organism. Test articles were inserted into the agar when the plates were solidified and dry. ZOI results were recorded at 24 hr. Three 0.5-cm sections of the 5-FU CVC were tested on each plate. Each plate also contained one negative and one positive control sample and 1 Arrow CVC sample.

Converted amounts (≈) assume the structure as drawn.

As usually defined, the MBC is the smallest concentration meeting the test's criterion for killing. One may read the MIC as the smallest concentration in the dilution series that meets the test's criterion for growth inhibition. A high value points to a need for much substance. Consider `O=c1[nH]c(=O)n([C@H]2C[C@H](O)[C@@H](CO)O2)cc1F` [Flox, floxuridine], for which the MBC against E. faecalis ATCC 29212 was 11.11 µg/mL (≈ 45.1 µM); with P. aeruginosa ATCC 27853, more than 100 µg/mL; against S. aureus ATCC 25923 it was 0.14 µg/mL (≈ 0.569 µM); in assay [1] it was less than 0.05 µg/mL; in the assay on K. pneumonia ATCC 700603 it was 3.7 µg/mL (≈ 15 µM). In addition, the minimal inhibitory concentration (MIC) in the assay with E. faecalis ATCC 29212 is 3.7 µg/mL (≈ 15 µM); against P. aeruginosa ATCC 27853 it was more than 100 µg/mL; in the assay on S. aureus ATCC 25923 it was less than 0.05 µg/mL; in assay [1] it was less than 0.05 µg/mL; with K. pneumonia ATCC 700603 it was 1.23 µg/mL (≈ 5 µM).
Regarding Penicillin, the ZOI is recorded as 41.3 mm with S. aureus, 0 mm in the assay on S. epidermidis, 0 mm in [2] and 0 mm with C. albicans.
